Legend:
Jurkat cells [1] = assay: Cytochrome C assay (flow cytometry); assay type: cell-based, Human; conditions: compound at CC50 concentration, 6 h (Figure 4; method says four hours)
Text: The quantification of cytochrome c release from the mitochondria in apoptotic cells was used to detect the mitochondrial pathway of apoptosis in the cells by flow cytometry. This study employed a direct labeling method that utilized an anti-cytochrome cFITC antibody, an anti-IgG1-FITC isotype control, and optimized fixation, permeabilization, and blocking buffers to detect cytochrome c by flow cytometry (Luminex®, Austin, TX, USA). […] The Jurkat cells were exposed to test substances at concentrations corresponding to their 24-h CC50 in these cells for a period of four hours. Thereafter, analysis by flow cytometry (NovoCyte Flow Cytometry™ Agilent, San Diego, CA, USA) was conducted. The acquired data were processed using NovoExpress® software (version 1.6.2) (ACEA (Agilent, Santa Clara, CA, USA)).
Figure 4 Detection of cytochrome c in Jurkat cells stained with a FlowCellect Cytochrome c Kit. The control compound, carbonyl cyanide m-chlorophenylhydrazone (CCCP), was administered at a concentration equal to its CC50 value. Compound 9d was added to the sample cells at a CC50 concentration (see the table of cell viability). The cells were incubated for 6 h. We compared the numerical values to determine the reliability of the differences observed between the control sample and the samples treated with the synthesized substances. […]

HL60 = assay: In vitro cytotoxic activity, 7-AAD flow cytometry, HL60; assay type: cell-based; conditions: Homo sapiens, HL-60, 24 h incubation, mean ± SD, triplicate
Text: (§1) The investigation focused on the assessment of the synthesized compounds’ toxicities, utilizing a panel of six diverse cell lines. The selection of cells was based on the specific features of their metabolism, namely, Jurkat, K562, U937, and HL60 cells are suspension cultures of oncohematologic origin, and HEK293 is a conditionally normal line transformed by adenovirus and often used as control cells along with fibroblasts. The normal fibroblast line (Wi-38) utilized in the experiment was diploid and was obtained from the lung tissue of an aborted fetus. The total cytotoxic activity of 16 compounds was studied using flow cytometry.
(§2) Human cancer cell lines, including Jurkat, K562, U937, HL60, and fibroblasts (Wi-38), were obtained from the European Authentic Cell Culture Collection and further cultured according to established standard protocols using sterile methods. The cells were cultivated in RPMI 1640 (for Jurkat and K562) and DMEM (for Wi-38 and HEK293) media (Gibco, Billings, MT, USA), with the addition of […] glutamine, 10% FBS (Sigma, Kanagawa, Japan), and 100 U/mL penicillin–streptomycin (Sigma). All cell types were cultivated in a humidified atmosphere containing 5% CO₂ at a temperature of 37 °C. Subculturing was performed at two- to three-day intervals. The cells were subsequently seeded into 24-well plates at a density of 5 × 10^4 cells per well and incubated overnight. Subsequent subculturing was then performed at two-day intervals, with a seeding density of 1 × 10^5 cells per 24-well plate, using RPMI medium with 10% FBS [49].
(§3) The dissolution of the compounds tested was initially performed in dimethyl sulfoxide (DMSO) with an initial solution of 100 mM in 10% DMSO. Subsequently, the solution was diluted in a complete culture medium, namely, Dulbecco’s medium, modified Eagle’s medium (DMEM), or Roswell Park Memorial Institute medium (RPMI). Substances were added at concentrations of 10, 1, 100, 10, 1, and 0.1 μM on the day after seeding and incubated for 24 h. Following this, the cells were washed with a phosphate-buffered saline (PBS) solution and stained with 7AAD dye, as per the manufacturer’s protocol for flow cytometry. The CC50 value, which characterizes the parameters of toxicity (i.e., the concentration of the compound required for 50% inhibition of cell viability in vitro), was calculated. logC versus % inhibition was plotted, and statistical data processing was performed using Excel and GraphPad Prism v.8.0.2 (San Diego, CA, USA, 2019). The data obtained from three independent experiments were expressed as the mean of three measurements for each concentration, with the standard deviation indicated as well. These values were then relative to the control values (0.1% DMSO), which were taken as 100%.
(§4) 7-AAD (7-aminoactinomycin D) dye (eBioscience™, San Diego, CA, USA) was used to assess cell viability. Following incubation with the test compounds, the cells were harvested, washed with a phosphate–salt buffer (PBS), and subjected to centrifugation at 400× g for five minutes. The cell sediment was resuspended in 200 μL of staining buffer for flow cytometry (PBS without calcium and magnesium, 2.5% FBS) and stained with a 1 mM 7-AAD dye solution for 15 min in the dark at room temperature. Subsequently, all samples, including experimental and control groups, were analyzed using a BD FACSAria™ III Cell Sorter flow cytometer (Milpitas, CA, USA).

Jurkat cells [2] = assay: Mitodamage assay (MitoSense Red, Annexin V-CF488A, 7-AAD); assay type: cell-based, Human; conditions: compound at CC50 concentration, four hours
Experimental: To this end, MitoSense Red, a fluorescent dye that accumulates predominantly in mitochondria and responds to changes in membrane potential, was utilized. […] Two dyes commonly employed for detecting apoptosis in cells are annexin V and 7AAD. […] Therefore, the dissipation of mitochondrial membrane potential and the associated apoptosis process in Jurkat tumor cells were analyzed in response to exposure to synthesized macrodiolides. MitoSense Red, Annexin V-CF488A, and 7-AAD were used as dyes for this analysis (see Figure 3). A flow cytometry kit (FlowCellect™ MitoDamage Kit from Millipore, Hayward, CA USA) was utilized, as it facilitates a multiparametric evaluation of three markers of cell health. These markers include changes in mitochondrial potential (early apoptosis and cell stress), phosphatidylserine expression on the cell surface (late apoptosis), and membrane permeability (cell death). The method of the simultaneous detection of mitochondrial damage was performed according to the well-known technique.  Figure 3 Detection changes in mitochondrial membrane potential (ΔΨ) and coupled early and late apoptosis in Jurkat cells treated with compounds 9d, 8d, 7d, and 6d. Staurosporine and carbonyl cyanide-m-chlorophenylhydrazone were utilized as control compounds. The addition of all the tested compounds was executed at the CC50 concentration (refer to the provided table for the cytotoxicities of the synthesized compounds). The staining of cells was conducted using MitoSense Red, Annexin V-CF488A, and 7-AAD. The incubation period lasted for a duration of four hours. The presence of three *** (p < 0.001) and two asterisks ** (p < 0.005) indicates the significance of the observed differences between the values obtained in the control sample and the samples treated with the synthesized substances (comparison was performed by one-way ANOVA). All experiments were performed in triplicate.

[3] = In vitro cytotoxic activity, 7-AAD flow cytometry, normal fibroblasts; assay type: cell-based; conditions: human, Wi-38 normal lung fibroblasts, normal fibroblasts Wi-38, 24 h incubation, mean ± SD, read-out: Fibrobl. (CC50)
Text: as §1, §2, §3, §4

U937 = assay: In vitro cytotoxic activity, 7-AAD flow cytometry, U937; assay type: cell-based, Human; conditions: Homo sapiens, U-937, 24 h, 24 h incubation, mean ± SD, triplicate
Text: as §1, §2, §3, §4

K562 = assay: In vitro cytotoxic activity, 7-AAD flow cytometry, K562; assay type: cell-based, Human; conditions: 24 h incubation, mean ± SD, triplicate
Text: as §1, §2, §3, §4

[4] = In vitro cytotoxic activity, 7-AAD flow cytometry, Hek293; assay type: cell-based; conditions: human, HEK293 cells, conditionally normal line, 24 h incubation, mean ± SD
Text: as §1, §2, §3, §4

Jurkat = assay: In vitro cytotoxic activity, 7-AAD flow cytometry, Jurkat; assay type: cell-based, Human; conditions: 24 h incubation, mean ± SD, triplicate
Text: as §1, §2, §3, §4

## O=C1CCCCC/C=C\CC/C=C\CCCCCC(=O)OCCCCCC/C=C\CC/C=C\CCCCCCO1 [Compound 9d]
Jurkat cells [1]
  cells releasing cytochrome c into the cytoplasm (Cytochrome loss %): 68.22%
HL60
  CC50: 13.5 ± 1.21 nM
Jurkat cells [2]; Jurkat, Annexin V-CF488A/7-AAD
  percentage of cells in apoptosis: 50.34%
Jurkat cells [2]; MitoSense Red
  Jurkat cells with reduced mitochondrial membrane potential (Δψ dissipation): 77.42%
[3]
  CC50 at 24 h: 64.3 ± 5.81 nM
U937
  CC50: 12.2 ± 1.41 nM
K562
  CC50: 11 ± 1.25 nM
K562; Homo sapiens, K562, 24 h
  CC50: 12.1 nM
[4]
  CC50 at 24 h: 42.6 ± 4.31 nM
Jurkat
  CC50: 12.1 ± 1.77 nM
Jurkat; Homo sapiens, Jurkat, 24 h
  CC50: 11 nM

From publication PMC12155470, “Novel Tetraene Macrodiolides Are Effective Inducers of Mitochondrial Apoptosis in Jurkat Cells” (International Journal of Molecular Sciences, 2025)
